Data as given in article PMC4373826, “Antiviral Effect of Methylated Flavonol Isorhamnetin against Influenza” (PLoS ONE, 2015).

Test system: influenza A/PR/8/34 (H1N1)
Test: microbe, parasite or virus in culture
Details: MDCK

COc1cc(-c2oc3cc(O)cc(O)c3c(=O)c2O)ccc1O [Isorhamnetin, isorhamnetin]
EC50 (0.5 h, Co-treatment (0.5 hr)): 76 µM
EC50 (1 h, Co-treatment (1 hr)): 42 µM
EC50 (2 h, Co-treatment (2 hr)): < 30 µM
EC50 (48 h, Post-treatment): 23 µM
EC50 (Pre-treatment (1 hr)): 51 µM
EC50 (Pre-treatment (12 hr)): 65 µM
EC50 (Pre-treatment (24 hr)): 88 µM
